From US9724416B2, “Composition for improving or promoting hair growth containing, as active ingredients, photosensitizer irradiated with light and peptide, and method using same” (GWANGJU INSTITUTE OF SCIENCE AND TECHNOLOGY, priority 2012, dated 2017)
Entries after “also recorded” stand apart in the source; their conditions may differ.

Key:
C57BL/6N mouse [1] = test: Hair growth promoting effects using a mouse (first test); type: in vivo; conditions: for hair growth levels: until day 3, compared across groups incl. untreated; for hair growth amounts compared to the control group: FIGS. 7 and 8 (day 10, day 12); for hair growth promoting effects with the naked eye compared to the untreated group: day 5 after sample treatment; for hair growth promoting effects compared to the untreated group: day 8 after sample treatment (FIG. 6B)
Description: (§1) ALA and ALA-peptide which were major test materials of the present invention were dissolved in pure water to a concentration of […] (100 ppm) to be used.
A 7-week-old C57BL/6N mouse (Jungang Lab. Animal Inc., KOR) was used for this study, and hair of the mouse's back was completely removed using a wax at the age of 49 days to 51 days at which the C57BL/6N mouse enters […] for the second time. In order to verify hair growth promoting effects of the test materials, it was treated once a day for 24 days. More particularly, ALA and the ALA-peptide were sprayed 3 times before LED radiation, and the LED treated groups were verified after being treated for 5 minutes.

C57BL/6N mouse [2] = test: Hair growth promoting effects using a mouse (second test); type: in vivo
Description: A 10-fold volume of primary distilled water was put into 100 g of Cimicifuga heracleifolia, Baikl skullcap, and Lance Asiabell dry matters, which were hot water extracted for 6 hours at 100° C. and were then filtered. The filtered extracts were pulverized through freeze-dried and then stored at 4° C. until used. The pulverized natural extracts were used in a mouse experiment at a concentration of 1 mg/ml.
as §1
A 7-week-old C57BL/6N mouse was used for this study, and hair of the mouse's back was completely removed using a wax at the age of 49 days to 51 days at which the C57BL/6N mouse enters […] for the second time. In order to verify hair growth promoting effects of the test materials, it was treated once a day for 24 days. More particularly, the ALA and ALA-peptide were sprayed 3 times before LED radiation, and the LED treated groups were verified after treated for 5 minutes.

| Compound | hair loss phenomenon compared to other treated groups (C57BL/6N mouse [1]; LED-Blue radiation, day 30 of observation (FIG. 15)) | hair growth levels (C57BL/6N mouse [1]; LED-Blue radiation) | hair growth levels (C57BL/6N mouse [1]; LED-Red radiation) | hair growth amounts compared to the control group (C57BL/6N mouse [1]; LED-Blue radiation) | hair growth promoting effects with the naked eye compared to the untreated group (C57BL/6N mouse [1]; LED-Blue radiation) | hair growth promoting effects compared to the untreated group (C57BL/6N mouse [1]; LED-Blue radiation) | hair growth promoting effects through continuous treatments (C57BL/6N mouse [1]; LED-Red radiation compared to LED-Blue radiation, FIGS. 9 to 14 (day 14 to day 24)) | hair growth amounts compared to the control group (C57BL/6N mouse [1]; LED-Red radiation) | hair growth promoting effects with the naked eye compared to the untreated group (C57BL/6N mouse [1]; LED-Red radiation) | hair growth promoting effects compared to the untreated group (C57BL/6N mouse [1]; LED-Red radiation) | hair growth promoting effects compared to the untreated group (in words) (C57BL/6N mouse [2]; LED-Red radiation, day 9 after sample treatment) | hair growth amounts compared to the untreated group (C57BL/6N mouse [2]; LED-Red radiation, extracts 1 mg/ml) | hair growth levels compared to untreated group (C57BL/6N mouse [2]; without LED radiation, FIGS. 16 to 19 (day 0 to day 7)) |
| --- | --- | --- | --- | --- | --- | --- | --- | --- | --- | --- | --- | --- | --- |
| Cl.NCC(=O)CCC(=O)O [ALA, 5-aminolevulinic acid, reference compound] | considerable hair loss phenomenon | no differences in hair growth levels | no differences in hair growth levels |  |  |  |  |  |  |  |  |  |  |
| 5-Aminolevulinic Acid (ALA)-Peptide (GHK) [ALA-peptide] |  |  |  | significant hair growth promoting effects | distinct differences | about 7 fold | more superior hair growth promoting effects than the LED-Blue+ALA-peptide treated group | significant hair growth promoting effects; also recorded: most superior hair growth promoting effect | distinct differences | about 10 fold | significant hair growth promoting effects | increasing effects in the significant hair growth amounts | little differences in hair growth levels |
